Data as given in patent US20220202811A1, “TREATMENT FOR RETINOIC ACID RECEPTOR-RELATED ORPHAN RECEPTOR Ɣ (RORƔ)-DEPENDENT CANCERS” (The Regents of the University of California, priority 2019, published 2022).

Experiments:
[1] = test system: Msi2-reporter+ stem cells; experiment: live imaging of REM2-KP^f/fC tumors; assay type: in vivo, mouse
Description: For imaging, mice were anesthetized by intraperitoneal injection of ketamine and xylazine (100/20 mg/kg). In order to visualize blood vessels and nuclei, mice were injected retro-orbitally with AlexaFluor 647 anti-mouse CD144 (VE-cadherin) antibody and Hoechst 33342 immediately following anesthesia induction. After 25 minutes, pancreatic tumors were removed and placed in HBSS containing 5% FBS and 2 mM EDTA. 80-150 μm images in 1024×1024 format were acquired with an HCX APO L20× objective on an upright Leica SP5 confocal system using Leica LAS AF 1.8.2 software. GFP cluster sizes were measure using ImageJ 1.51s software. 2 mice per treatment group were analyzed in this study; 6-10 frames were analyzed per mouse.

[2] = test system: Hmga2; experiment: target engagement by Hmga2 immunofluorescence in KP^f/fC tumors; assay type: in vivo, mouse; details: mid-point of the treatment regimen
Description: FIGS. 20A-20D show target engagement following RORγ inhibition in vivo, related to FIGS. 5A-5X. FIGS. 20A and 20B: Tumor-bearing KP^f/fC mice 9.5 weeks of age were treated with vehicle or SR2211 for two weeks (midpoint), after which tumors were isolated, fixed, and analyzed for target engagement of Hmga2 in epithelial cells by immunofluorescence. Quantification of Hmga2-positive epithelial cells in vehicle or SR2211 treated tumors (FIG. 20A) representative images (FIG. 20B). FIGS. 20C and 20D: Tumor-bearing KP^f/fC mice were treated from 8 weeks of age to endpoint with either vehicle or SR2211. Quantification of Hmga2-positive epithelial cells in vehicle or SR2211 treated tumors (FIG. 20C), representative images (FIG. 20D). Four frames were analyzed per mouse, n=2-4 mice per condition, Hmga2 (red), Keratin (green). Data represented as mean+/−S.E.M. *p<0.05, **p<0.01, ***p<0.001 by Student's t-test or One-way ANOVA. Grubb's test (p=0.1), was used to remove an outlier from the midpoint SR2211 treated group.
Pancreatic cancer tissue from KP^f/fC mice was fixed in Z-fix (Anatech Ltd, Fisher Scientific) and paraffin embedded at the UCSD Histology and Immunohistochemistry Core at The Sanford Consortium for Regenerative Medicine according to standard protocols. 5 μm sections were obtained and deparaffinized in xylene. […]

[3] = test system: KP^f/fC derived flank tumors; experiment: KP^f/fC flank tumors in immunocompetent mice; assay type: in vivo, mouse
[4] = test system: human PDAC cells; experiment: human PDAC (FG) flank tumors in immunocompromised mice; assay type: in vivo; details: compared to vehicle-treatment
Description: Subcutaneous tumor dimensions were measured with calipers 1-2× weekly.

[5] = test system: LuCA KP lung cancer cells; experiment: lung cancer tumor sphere formation; assay type: cell-based; details: 0.3 μM, 0.6 μM, 1 μM, and 1.2 μM; relative to control
Excerpt: Then the number of formed tumor spheres were counted and quantified as relative to control.

[6] = test system: pancreatic cancer cell; experiment: in vivo tumor growth, antagonists of Table 2; design: species or system mouse; details: extent of growth suppression relative to control
[7] = test system: K562 cells; experiment: k562 colony assay in methylcellulose; assay type: cell-based, human
Excerpt: K562 is an aggressive human leukemia cell line generated from blast crisis chronic myeloid leukemia. […] Cells were allowed to grow over the course of 8 days before the numbers of formed colonies were counted. This was used to understand the functionality of k562 cells under different conditions. Cells treated with AZD-0284 formed fewer colonies and their morphology was smaller in comparison to the vehicle-treated cells.

[8] = test system: tumor-bearing KP^f/fC mice; experiment: tumor-bearing KP^f/fC mice in vivo (AZD-0284, JTE-151); design: species or system mouse
Description: Next, the impact of JTE-151 was tested on tumor-bearing KP^f/fC mice in vivo. FIG. 51 is a schematic of the experimental design. KP^f/fC mice were allowed to develop tumors, then the tumor-bearing mice received vehicle or JTE-151, followed by analysis of the tumors at the end of the experiments. Different doses of JTE-151, i.e., at 30 mg/kg, 90 mg/kg, and 120 mg/kg body weight, were tested.
FIGS. 53-56 show examples of individual experiments where tumor-bearing KP^f/fC mice was treated with either vehicle or 90 mg/kg JTE-151 for 3 weeks in regimens as specified in the figures. For example, in FIGS. 53 and 55, the mice received 90 mg/kg JTE-151 once daily for 3 weeks. In FIG. 54, the mice received 90 mg/kg JTE-151 once daily for 1 week, followed by twice daily for another 2 weeks. At the end of each experiment, tumors were analyzed for different parameters including tumor mass, cell number, EpCAM positivity, CD133 positivity, EpCAM/CD133 positivity, cellularity, and IL-17 level. […] It was not clear whether the initial tumor size of the non-responder mouse was unusually large due to variances between different mice.
Similarly, the anti-cancer effect of JTE-151 was tested on tumor-bearing KP^f/fC mice in vivo at a higher dose of 120 mg/kg (FIGS. 59-61 showing three individual experiments). For each experiment, one mouse was given vehicle treatment, and another mouse was given the JTE-151 regimen as specified in the figures. For example, in FIG. 59, the JTE-151 mouse received 120 mg/kg body weight of JTE-151 for 2 weeks and then 90 mg/kg JTE-151 for 1 week. In the first 1.5 weeks, JTE-151 was given once daily, and in the second 1.5 weeks, JTE-151 was given twice daily. As previously, at the end of each experiment, tumors were analyzed for different parameters including cell number, EpCAM positivity, EpCAM/CD133 positivity, and IL-17 level. In each of FIGS. 59-61, the horizontal axis of each graph represents the target (vehicle vs. JTE-151 mouse), and the vertical axis represents the specified measurement.

[9] = SR2211 in combination with gemcitabine
[10] = 90 mg/kg JTE-151, 3 weeks, compilation (FIG. 57)
[11] = 120 mg/kg JTE-151 regimen, mice that responded

Structure (SMILES): OC(c1ccc(-c2ccc(CN3CCN(Cc4ccncc4)CC3)cc2)c(F)c1)(C(F)(F)F)C(F)(F)F [SR2211]
- necrosis in surrounding tissues ([1]; mouse, in vivo): no increased necrosis
- large stem cell clusters ([1]; within 1 week of treatment): striking depletion
- Hmga2 in pancreatic epithelial cells [2]: downregulated
- depletion in CD133+ cells ([3]; SR2211 alone): 3 fold
- depletion in Msi+ cells ([3]; SR2211 alone): 3 fold
- depletion of CD133+ cells [3, 9]: 11 fold
- depletion of Msi2+ cells [3, 9]: 6 fold
- reduction in tumor growth [4]: ~6 fold
- tumor sphere formation [5]: significantly reduced
- in vivo tumor growth [6]: ✓✓ (dose response observed; growth suppressed by less than 4-fold relative to control)

Structure (SMILES): CC(=O)N1Cc2cc(S(C)(=O)=O)ccc2[C@@H]1C(=O)Nc1ccc(C(O)(C(F)(F)F)C(F)(F)F)cc1 [AZD-0284]
- number of colonies formed ([7]; 1 μM, 3 μM, 5 μM, 10 μM, and 15 μM AZD-0284, 8 days): significant reduction
- colony morphology ([7]; in comparison to the vehicle-treated cells): smaller

Structure (SMILES): Cc1ccc(NC(=O)C[C@H](CCC(=O)O)c2noc([C@H]3C[C@@H](CC(C)(C)C)C3)c2C2CC2)c(Cl)c1 [JTE-151, (4S)-6-[(2-chloro-4-methylphenyl)amino]-4-{4-cyclopropyl-5-[cis-3-(2,2-dimethylpropyl)cyclobutyl]isoxazol-3-yl}-6-oxohexanoic acid]
- EpCam+/CD133+ tumor stem cells ([8]; 30 mg/kg JTE-151 once daily for about 3 weeks (FIG. 52)): loss
- mice that did not show a response ([8]; 90 mg/kg JTE-151 (FIG. 56)): 1 out of 5
- EpCam+/CD133+ tumor stem cells [8, 10]: loss
- tumor mass [8, 10]: reduced
- tumor mass ([8]; 90 mg/kg JTE-151, 3 weeks, individual experiments (FIGS. 53-55)): reduced
- mice that responded to the drug ([8]; 120 mg/kg JTE-151 regimen (FIGS. 59-61)): At least two of the three mice
- EpCam+ tumor epithelial cells [8, 11]: loss
- EpCam+/CD133+ tumor stem cells [8, 11]: loss
- EpCam+/CD133+ tumor stem cells ([8]; JTE-151 at either 30 mg/kg or 90 mg/kg, 3 weeks (FIG. 58)): loss
